Measured values reported in patent US4711886A, “β-lactam derivatives as anti-inflammatory and antidegenerative agents” (Merck & Co., Inc., priority 1984, dated 1987).
Read-outs that look alike come from different tables or passages of the source.

Biological target: T1, Human Polymorphonuclear Leukocyte Elastase (Homo sapiens, UniProt P08246)
T1 construct: Crude extract of human polymorphonuclear leukocytes (PMN) containing elastase activity; endogenous in cells; host or cells: human polymorphonuclear leukocytes (crude extract)
T1 sequence (P08246 30-247 limits assumed): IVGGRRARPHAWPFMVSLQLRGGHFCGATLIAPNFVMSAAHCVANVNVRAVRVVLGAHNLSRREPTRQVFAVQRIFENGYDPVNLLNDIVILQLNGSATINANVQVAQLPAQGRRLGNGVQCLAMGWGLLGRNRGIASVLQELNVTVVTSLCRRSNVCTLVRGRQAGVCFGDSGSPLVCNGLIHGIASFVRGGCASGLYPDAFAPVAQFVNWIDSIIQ
Assay: Inhibition of human polymorphonuclear leukocyte elastase via hydrolysis of N-t-Boc-alanyl-alanyl-prolyl-alanine-p-nitroanilide
Type: biochemical
Settings: 50% inhibition of enzyme activity 2 minutes after zero time, crude PMN extract, Boc-AAPAN substrate, pH 7.5
Experimental: Enzyme Assays for the Inhibition of Human Polymorphonuclear Leukocyte Elastase Via Hydrolysis of N-t-Boc-alanyl-alanyl-prolylalanine-p-nitroanilide
0.05M TES (N-tris[hydroxymethyl]methyl-2-amino-ethanesulfonic acid) buffer, pH 7.5.
0.2 mM N-t-Boc-alanyl-alanyl-prolyl-alanine-p-nitroanilide (Boc-AAPAN).
To prepare substrate, the solid (m.w. 550) was first dissolved in 10.0 ml DMSO. Buffer at pH 7.5 was then added to a final volume of 100 ml.
Crude extract of human polymorphonuclear leukocytes (PMN) containing elastase activity.
Inhibitors (β-lactam derivatives) to be tested dissolved in DMSO just before use.
To 1.0 ml of 0.2 mM Boc-AAPAN in a cuvette, 0.01-0.1 ml of DMSO with or without inhibitor was added. After mixing, a measurement was taken at 410 mμ to detect any spontaneous hydrolysis due to presence of test compound. 0.05 Milliliters of PMN extract was then added and the ΔOD/min at 410 mμ was measured and recorded. Beckman model 35 spectrophotometer was used.
The elastase activity in the crude PMN extract may vary from one preparation to another. A control of each new batch is run, and the volume added in the assay procedure is adjusted according to activity.

[1] = Table III, penems, read-out: IC50 (converted)

With `CCSC1=C(C(=O)OCc2ccc([N+](=O)[O-])cc2)N2C(=O)C(C(C)OC(=O)OCc3ccccc3)C2S1` (stereo not shown) the IC50 [1] was 0.367 µM.
For `CCSC1=C(C(=O)OCc2ccc([N+](=O)[O-])cc2)N2C(=O)C(C(C)O)C2S1` (stereo not shown), the IC50 [1] was 4.87 µM.
Work on `COC1C(=O)N2C(C(=O)OCc3ccccc3)=C(COC(C)=O)SC12` (stereo not shown) yielded an IC50 [1] of 11 µM.
With `CCOC1=C(C(=O)OCc2ccccc2)N2C(=O)CC2S1` (stereo not shown) the IC50 [1] was 6.55 µM.
`O=C(OCc1ccccc1)C1C(=CCO)OC2CC(=O)N21` (stereo not shown) [B1 = CH2 C6 H5] was tested, and the IC50 (Table IV, clavulanic acid series, read-out: IC50 (converted)) was 10.4 µM.
`CC1=C(C(=O)OCc2ccccc2)N2C(=O)C[C@H]2S1` [R1 = H, n = 0, M = CH3, B = OCH2 C6 H5, benzyl 2-methylpenem-3-carboxylate] was tested, and the IC50 [1] was 14.5 µM.
`O=C(O)[C@H]1/C(=C/CO)O[C@@H]2CC(=O)N21` [clavulanic acid, reference compound] was tested, and the IC50 (Table IV, clavulanic acid series) was “inactive”.
